In patent US10584124B2, “Crystalline forms” (Array BioPharma Inc., priority 2017, dated 2020):
Where two headings read alike, the source gives them in different places.

What was measured:
[1] = Isothermic (25° C.) DVS analysis of salts of the compound of Formula I; format: physicochemical; settings: for Mass gain by DVS: 80% relative humidity, 25° C.; for Hygroscopicity by DVS (in words): isothermic 25° C.; for Deliquescence upon removal from the DVS chamber: sample remained a free-flowing powder
Description: (FIG. 16D). […] Some hysteresis was observed. […] (FIG. 16C). […] (FIG. 16D).
(FIG. 18A). […] (FIG. 18B). […] Some hysteresis was observed. […] An overlay of FTIR spectra of the L- and D-malic acid salts is shown in FIG. 18F. ^1H NMR spectra of the L- and D-malic salts in DMSO-d^6 are shown in FIG. 18G-18H, respectively.

[2] = Solubility test of the D-malic acid salt (room temperature, 60° C., 70° C.); format: physicochemical; settings: for Solids dissolve at 70° C.?: 70° C. for approximately 3.0 hours
[3] = Stability screening of freebase and selected salts of Formula I, 40° C. and 75% RH, weekly HPLC over 4 weeks; settings: for Absolute % change: 40° C. and 75% RH, T = 0 to 4 weeks; for Stability, HPLC analysis, T = 1 week / Stability, HPLC analysis, T = 2 weeks / Stability, HPLC analysis, T = 3 weeks / Stability, HPLC analysis, T = 4 weeks / Stability, HPLC analysis, T = 0: stored at 40° C. and 75% RH
GVS hygroscopicity = format: physicochemical
Description: The instruments and methods of analysis used in the polymorph screens described in Examples 5 are described in Example 4, above.

[4] = Solubility screening of the compound of Formula IV (freebase) in solvent mixtures; format: physicochemical; settings: approximately 25° C.

With `COc1ccc(CN2CCN(c3ccc(-c4cc(-c5cnn(C)c5)cn5ncc(C#N)c45)cn3)CC2)cn1.O=C(O)C[C@@H](O)C(=O)O` [D-malic acid salt] the “Mass gain by DVS” value [1] was “approximately 2.8%”, the “Hygroscopicity by DVS (in words)” value [1] was “hygroscopic” and the “Deliquescence upon removal from the DVS chamber” value [1] was “no observable deliquescence”. For the same compound, the “Solids dissolve at 60° C.?” value ([2]; 60° C. for 3.0 hours, solvent 0.1M HCl, Yes) was “Yes (>15 mg/mL)”, the “Solids dissolve at 60° C.?” value ([2]; 60° C. for 3.0 hours, solvent 2-methyl THF) was “No” and the “Solids dissolve at 60° C.?” value ([2]; 60° C. for 3.0 hours, solvent ACN) was “No”. The “Solids dissolve at 60° C.?” value ([2]; 60° C. for 3.0 hours, solvent Acetone) was “No”, the “Solids dissolve at 60° C.?” value ([2]; 60° C. for 3.0 hours, solvent DCE) was “No” and the “Solids dissolve at 60° C.?” value ([2]; 60° C. for 3.0 hours, solvent DMSO, Yes) was “Yes (>40 mg/mL)”. For the same compound, the “Solids dissolve at 60° C.?” value ([2]; 60° C. for 3.0 hours, solvent EtOAc) was “No”, the “Solids dissolve at 60° C.?” value ([2]; 60° C. for 3.0 hours, solvent EtOH) was “No” and the “Solids dissolve at 60° C.?” value ([2]; 60° C. for 3.0 hours, solvent IPA) was “No”. For the same compound, the “Solids dissolve at 60° C.?” value ([2]; 60° C. for 3.0 hours, solvent MEK) was “No”, the “Solids dissolve at 60° C.?” value ([2]; 60° C. for 3.0 hours, solvent MTBE) was “No” and the “Solids dissolve at 60° C.?” value ([2]; 60° C. for 3.0 hours, solvent MeOH) was “No”. The “Solids dissolve at 60° C.?” value ([2]; 60° C. for 3.0 hours, solvent Toluene) was “No”, the “Solids dissolve at 60° C.?” value ([2]; 60° C. for 3.0 hours, solvent iPAc) was “No” and the “Solids dissolve at 60° C.?” value ([2]; 60° C. for 3.0 hours, solvent water) was “No”. For the same compound, the “Solids dissolve at 70° C.?” value ([2]; solvent 2-methyl THF) was “No”, the “Solids dissolve at 70° C.?” value ([2]; solvent ACN) was “No” and the “Solids dissolve at 70° C.?” value ([2]; solvent DCE) was “No”. The “Solids dissolve at 70° C.?” value ([2]; solvent DMSO, Yes) was “Yes (>56 mg/mL)”, the “Solids dissolve at 70° C.?” value ([2]; solvent EtOAc) was “No” and the “Solids dissolve at 70° C.?” value ([2]; solvent EtOH) was “No”. The “Solids dissolve at 70° C.?” value ([2]; solvent IPA) was “No”, the “Solids dissolve at 70° C.?” value ([2]; solvent MEK) was “No” and the “Solids dissolve at 70° C.?” value ([2]; solvent MTBE) was “No”. The “Solids dissolve at 70° C.?” value ([2]; solvent Toluene) was “No”, the “Solids dissolve at 70° C.?” value ([2]; solvent iPAc) was “No” and the “Solids dissolve at 70° C.?” value ([2]; solvent water) was “No”. For the same compound, the “Solids dissolve at 60° C.?” value ([2]; solvent THF, cell says At 65° C.) was about 10 mg/mL, the Absolute % change [3] was 0.6% and the “Stability, HPLC analysis, T = 1 week” value [3] was 97.6%. For the same compound, the “Stability, HPLC analysis, T = 2 weeks” value [3] was 97.4%, the “Stability, HPLC analysis, T = 3 weeks” value [3] was 97.2% and the “Stability, HPLC analysis, T = 4 weeks” value [3] was 97.1%. For the same compound, the “Stability, HPLC analysis, T = 0” value [3] was 97.7%.

In the case of `COc1ccc(CN2C3CC2CN(c2ccc(-c4cc(OCC(C)(C)O)cn5ncc(C#N)c45)cn2)C3)cn1` [Form 1], the “Hygroscopicity by GVS (in words)” value (GVS hygroscopicity) is reported as “moderately hygroscopic” and the “Weight increase by GVS” value (GVS hygroscopicity; at 90% RH) is reported as 2.6%.

For `COc1ccc(CN2CCN(c3ccc(-c4cc(-c5cnn(C)c5)cn5ncc(C#N)c45)cn3)CC2)cn1.Cl` [HCl salt], the “Mass gain by DVS” value [1] was “approximately 5%”, the “Hygroscopicity by DVS (in words)” value [1] was “hygroscopic” and the “Deliquescence upon removal from the DVS chamber” value [1] was “no observable deliquescence”. For the same compound, the Absolute % change [3] was 0.0%, the “Stability, HPLC analysis, T = 1 week” value [3] was 99.3% and the “Stability, HPLC analysis, T = 2 weeks” value [3] was 99.3%. For the same compound, the “Stability, HPLC analysis, T = 3 weeks” value [3] was 99.3%, the “Stability, HPLC analysis, T = 4 weeks” value [3] was 99.3% and the “Stability, HPLC analysis, T = 0” value [3] was 99.3%.

For `CC(C)(O)COc1cc(-c2ccc(N3CCC(O)(Cc4ccccn4)CC3)nc2)c2c(C#N)cnn2c1` [compound of Formula IV, 6-(2-hydroxy-2-methylpropoxy)-4-(6-(4-hydroxy-4-(pyridin-2-ylmethyl)piperidin-1-yl)pyridin-3-yl)pyrazolo[1,5-a]pyridine-3-carbonitrile], the solubility ([4]; Water) was 0.007 mg/mL, the solubility ([4]; aqueous with cosolvent or surfactant or cyclodextrin, Acetone:water (1:1)) was 45.8 mg/mL and the solubility ([4]; aqueous with cosolvent or surfactant or cyclodextrin, EtOH:water (1:1)) was 51 mg/mL. It also gave a solubility ([4]; organic solvent or mixture, ACN) of 21.2 mg/mL, a solubility ([4]; organic solvent or mixture, Acetone) of 42.9 mg/mL and a solubility ([4]; organic solvent or mixture, Acetone:heptane (1:1)) of 6.1 mg/mL. The solubility ([4]; organic solvent or mixture, Butanol) was 16.6 mg/mL, the solubility ([4]; organic solvent or mixture, Chloroform) was over 59 mg/mL and the solubility ([4]; organic solvent or mixture, Chloroform:heptane (1:1)) was 11.7 mg/mL. The solubility ([4]; organic solvent or mixture, DCM) was over 70 mg/mL, the solubility ([4]; organic solvent or mixture, EtOH:water (90:10)) was 55 mg/mL and the solubility ([4]; organic solvent or mixture, Ethanol) was 5.2 mg/mL. For the same compound, the solubility ([4]; organic solvent or mixture, Ethyl acetate) was 21 mg/mL, the solubility ([4]; organic solvent or mixture, IPA) was 7 mg/mL and the solubility ([4]; organic solvent or mixture, MEK) was 30.7 mg/mL. The solubility ([4]; organic solvent or mixture, MTBE) was 5.5 mg/mL, the solubility ([4]; organic solvent or mixture, Methanol) was over 74 mg/mL and the solubility ([4]; organic solvent or mixture, THF) was over 37 mg/mL. For the same compound, the solubility ([4]; organic solvent or mixture, THF:heptane (30:70)) was 0.6 mg/mL and the solubility ([4]; organic solvent or mixture, p-dioxane) was over 62 mg/mL.

With `COc1ccc(CN2C3CC2CN(c2ccc(-c4cc(OCC(C)(C)O)cn5ncc(C#N)c45)cn2)C3)cn1.O=P(O)(O)O` [phosphate salt] the “Hygroscopicity by GVS (in words)” value (GVS hygroscopicity) was “highly hygroscopic”, the “Weight increase by GVS” value (GVS hygroscopicity) was “approximately 14%” and the “Form and crystallinity by XRPD after 7-day stability tests” value (ambient temperature and light, 40° C./75% RH, 80° C.) was “no change in form or crystallinity”. The “Purity after 7-day stability storage” value (stored 7 days at 40° C./75% RH) was 97.44%, the “Purity after 7-day stability storage” value (stored 7 days at 80° C.) was 64.96% and the “Purity after 7-day stability storage” value (stored 7 days at RT (ambient temperature and light)) was 98.03%.
